The target in assay [1] is T1, Estrogen receptor (Homo sapiens, UniProt P03372).
T1 sequence (P03372 whole entry): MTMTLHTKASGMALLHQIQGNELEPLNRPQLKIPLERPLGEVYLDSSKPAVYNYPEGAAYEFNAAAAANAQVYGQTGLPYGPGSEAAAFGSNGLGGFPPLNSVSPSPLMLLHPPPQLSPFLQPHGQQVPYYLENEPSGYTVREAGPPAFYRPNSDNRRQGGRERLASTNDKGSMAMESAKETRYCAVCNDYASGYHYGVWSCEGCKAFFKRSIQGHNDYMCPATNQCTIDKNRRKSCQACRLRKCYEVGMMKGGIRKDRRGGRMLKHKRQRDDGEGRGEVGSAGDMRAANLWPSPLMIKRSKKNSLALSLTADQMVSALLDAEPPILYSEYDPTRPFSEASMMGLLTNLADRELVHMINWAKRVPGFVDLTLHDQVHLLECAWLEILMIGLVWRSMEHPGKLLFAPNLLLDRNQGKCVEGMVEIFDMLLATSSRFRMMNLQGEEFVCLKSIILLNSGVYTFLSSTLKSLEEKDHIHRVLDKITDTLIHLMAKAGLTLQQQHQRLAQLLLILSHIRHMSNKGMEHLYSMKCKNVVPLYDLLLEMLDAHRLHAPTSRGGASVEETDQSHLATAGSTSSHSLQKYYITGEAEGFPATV
Description: Transcriptional activation of estrogen receptor alpha in U2OS cell using estrogen-regulated luciferase reporter gene plasmid upon incubation for 20-30 mins at RT

Assay [2] has as its target T2, Estrogen receptor beta (Homo sapiens, UniProt Q92731).
Description: Transcriptional activation of estrogen receptor beta in U2OS cell using estrogen-regulated luciferase reporter gene plasmid upon incubation for 20-30 mins at RT
For assay [3], the target named is T2, Estrogen receptor beta. The source holds these as a separate data set.
The target in assay [4] is T1, Estrogen receptor. This is another data set of the same source.

SMILES strings stand for the structures.

T2 sequence (Q92731 whole entry): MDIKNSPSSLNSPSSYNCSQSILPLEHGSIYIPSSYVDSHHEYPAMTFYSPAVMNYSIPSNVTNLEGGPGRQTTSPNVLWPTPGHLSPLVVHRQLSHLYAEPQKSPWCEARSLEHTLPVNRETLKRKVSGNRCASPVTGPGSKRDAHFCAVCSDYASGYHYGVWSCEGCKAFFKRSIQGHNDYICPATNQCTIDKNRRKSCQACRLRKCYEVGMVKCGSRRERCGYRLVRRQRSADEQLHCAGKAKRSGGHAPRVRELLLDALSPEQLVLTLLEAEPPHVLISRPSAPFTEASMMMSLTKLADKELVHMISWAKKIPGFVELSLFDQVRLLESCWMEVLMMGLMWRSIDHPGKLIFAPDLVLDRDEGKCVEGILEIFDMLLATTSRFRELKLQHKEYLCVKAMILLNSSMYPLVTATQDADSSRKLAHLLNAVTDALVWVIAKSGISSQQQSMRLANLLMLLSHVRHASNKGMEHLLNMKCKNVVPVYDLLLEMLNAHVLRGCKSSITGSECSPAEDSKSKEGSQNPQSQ

Consider `CCC1=C(c2ccc(O)cc2)C(CC)c2cc(O)ccc21` (stereo not drawn), for which the EC50 (commonly the concentration at which the effect is half-maximal) at Estrogen receptor [1] is 0.059 nM; at Estrogen receptor beta [2], 0.3 nM.
`Oc1ccc(C2=C(c3ccc(Cl)cc3)c3ccc(O)cc3C2)cc1`: the values for the Ki at Estrogen receptor beta [3] and on Estrogen receptor [4] were 0.49 nM and 24 nM, respectively. This compound also displayed an EC50 on Estrogen receptor [1] of 17 nM.
In the case of `Oc1ccc(C2=C(c3ccccc3)c3ccc(O)cc3C2)cc1`, the EC50 at Estrogen receptor [1] amounted to 4.3 nM; on Estrogen receptor beta [2], 54 nM.
Consider `CC(=O)c1ccc(C2=C(c3ccc(O)cc3)Cc3cc(O)ccc32)cc1`, for which the inhibition constant (Ki) – broadly, a dissociation constant, usually derived from enzyme kinetics or from competition with a known ligand – was found to be 3.8 nM at Estrogen receptor beta [3] and 7.3 nM on Estrogen receptor [4].
For `Nc1ccc(C2=C(c3ccc(O)cc3)Cc3cc(O)ccc32)cc1`, the Ki on Estrogen receptor beta [3] worked out at 2.2 nM; on Estrogen receptor [4] it was 0.67 nM. Moreover, at Estrogen receptor [1], the EC50 is 6.7 nM.
For the compound `NC(=O)c1ccc(C2=C(c3ccc(O)cc3)Cc3cc(O)ccc32)cc1`, the Ki at Estrogen receptor beta [3] is 0.46 nM; on Estrogen receptor [4], 4.2 nM.
`O=C(O)c1ccc(C2=C(c3ccc(O)cc3)Cc3cc(O)ccc32)cc1`: on Estrogen receptor beta [3], the Ki worked out at 421 nM.
For the compound `Oc1ccc(C2=C(c3ccc(C(F)(F)F)cc3)c3ccc(O)cc3C2)cc1`, the results for the inhibitory constant (Ki) on Estrogen receptor beta [3] and at Estrogen receptor [4] were 0.91 nM and 2.1 nM, respectively. Besides, the EC50 at Estrogen receptor [1] stood at 15 nM.
Turning to `CCC1=C(c2ccc(O)cc2)C(C(=O)Nc2ccc(OCCN3CCCCC3)cc2)c2cc(O)ccc21` (stereo not drawn), the Ki on Estrogen receptor beta [3] is 147 nM; on Estrogen receptor [4], 184 nM. The compound further gave an EC50 on Estrogen receptor [1] of 100 nM.
Take `CCC1=C(c2ccc(O)cc2)C(C(=O)O)c2cc(O)ccc21` (stereo not drawn): the EC50 on Estrogen receptor [1] was 158 nM; at Estrogen receptor beta [2], 52 nM.
Turning to `Oc1ccc(C2=C(c3ccc(O)cc3)c3ccc(O)cc3C2)cc1`, the Ki was 1.3 nM on Estrogen receptor beta [3] and 8.5 nM at Estrogen receptor [4]. The compound further registered an EC50 at Estrogen receptor [1] of 7 nM.
With `Oc1ccc(C2=C(c3ccc(CBr)cc3)c3ccc(O)cc3C2)cc1`, the Ki is 15 nM at Estrogen receptor beta [3] and 59 nM at Estrogen receptor [4]. Besides, at Estrogen receptor [1], a half-maximal effect (EC50) was put at 109 nM.
With `Oc1ccc(C2=C(c3ccc(F)cc3)c3ccc(O)cc3C2)cc1`, at Estrogen receptor beta [3], the affinity, expressed as Ki, was 2.8 nM. For the same compound, the EC50 on Estrogen receptor [1] came to 3.9 nM; on Estrogen receptor beta [2] it was 10 nM.
Turning to `CCC1=C(c2ccc(O)cc2)C(C(=O)Nc2ccc(O)cc2)c2cc(O)ccc21` (stereo not drawn), the EC50 on Estrogen receptor [1] came out at 427 nM.
For `CCC1=C(c2ccc(O)cc2)C(C(=O)Nc2ccc(OCCN(C)C)cc2)c2cc(O)ccc21` (stereo not drawn), the results for the EC50 on Estrogen receptor [1] and at Estrogen receptor beta [2] were 152 nM and 512 nM, respectively.
On Estrogen receptor beta [3], `Cc1ccc(C2=C(c3ccc(O)cc3)Cc3cc(O)ccc32)cc1` yielded a Ki of 1.3 nM. The same compound had an EC50 at Estrogen receptor [1] of 17 nM.
Take `CCC1=C(c2ccc(O)cc2)Cc2cc(O)ccc21`: the EC50 is 0.31 nM at Estrogen receptor [1] and 0.3 nM on Estrogen receptor beta [2].
The matching figures for `Oc1ccc(C2=C(Cc3ccccc3)c3ccc(O)cc3C2)cc1`: 14 nM and 37 nM.
On to `Oc1ccc(C2=C(c3ccc(OCCN4CCCCC4)cc3)c3ccc(O)cc3C2)cc1`, for which the Ki was 0.19 nM at Estrogen receptor beta [3] and 1.7 nM at Estrogen receptor [4].
